Results on 24 molecules are retold here after patent US4048307A, “Cyclic adenosine monophosphate 8-substituted derivatives” (priority 1974, dated 1977).

Data set [1] deals with CHO-Ki cells. Nature of the data set: Reverse transformation of cultured CHO-Ki cells (c-AMP level elevation, membrane permeability by L.R.C.). It is filed as cell-based, Chinese hamster. As to conditions: for minimal effective concentration: Cricetulus griseus, microscopic analysis after 16 and 30 hours, read-out: L.R.C. (limiting reverse-transformable concentration). On the procedure:
We utilized their test system and tested new derivatives as regards the following two properties:
The tests were conducted in the following manner according to the modification of the method of Hsie and Puck:
2. The membrane permeability was evaluated based on the reverse transformation. More specifically, new derivatives were added at a concentration of 10^-3, 5 × 10^-2, 10^-1, 2× 10^-1, 5 × 10^-1 or 1 millimole/liter to the above-mentionedmedium. After 16 and 30 hours, microscopic analysis was conducted, and the limiting reverse-transformable concentration (referred to as "L.R.C.") was determined and the membrane permeability was evaluated, based on the so determined L.R.C. value.
***The membrane permeability was determined based on the minimum
concentration causing the re-transformation of cultured CHO-Ki cells. (Th

The target of data set [2] is Hog Brain Phosphodiesterase (PDE). Briefly: Inhibition of c-AMP hydrolysis by hog brain phosphodiesterase (PDE). As to conditions: for Ki: Lineweaver-Burk plot slope and Dixon plot cross-point, read-out: Inhibition II: Inhibition Constant (Ki); for Inhibition I: Relative Inhibition: c-AMP 1.0, derivative 1.0 millimole/liter. It is filed as biochemical. On the procedure:
**PDE inhibition was evaluated based on the relative inhibition observed
when the sample compound was added at the same molar concentration as tha
of the substrate (1 millimole/liter) and the inhibition constant (ki)
calculated according to the enzymological method (Lineweaver-Burk plot).
The enzyme purification was conducted by ammonium sulfate fractionation and passage through DEAE cellulose column according to the modification of the method of T. S. Teo, T. T. Wang et al. (J. Biol. Chemi. 248, 585). […] Reaction and analysis were carried out as taught by Bucher and Sutherland [J. Biol. Chemi., 237, 1244 (1962)].
*: The values were calculated according the following equation: 100
containing no inhibitor.
**: Ki values were calculated from the slope of Lineweaver-Burk plot and
the cross-point of Dixon plot.?

The test system of data set [3] is Hog Brain Phosphodiesterase (PDE). The description is as above. It is filed as biochemical. As to conditions: c-AMP 1.0, derivative 0.5 millimole/liter.
For another data set, the system named is protein kinases. The following applies: Hsie and Puck; cited from earlier work.
Data set [4] concerns CHO-Ki cells. As to conditions: 10^-3 mole/liter; Hsie and Puck; cited from earlier work.
In data set [5] the test system is Hog Brain Phosphodiesterase (PDE). As to conditions: Hsie and Puck; cited from earlier work.

By Ki is commonly meant a dissociation constant, usually derived from enzyme kinetics or from competition with a known ligand.

Regarding `Nc1ncnc2c1nc(Br)n2[C@@H]1O[C@@H]2COP(=O)(O)O[C@H]2[C@H]1O` [Example 8-Br-c-AMP, 8-bromo-c-AMP, reference compound], the minimal effective concentration in the data set on CHO-Ki cells [1] was roughly 200 µM. Besides, in data set [2], the inhibitory constant (Ki) was 470 µM and the “Inhibition I: Relative Inhibition” value is listed as 38.9%.
Regarding `CCCCCNc1nc2c(N)ncnc2n1[C@@H]1O[C@@H]2COP(=O)(O)O[C@H]2[C@H]1O` [8-CH3 (CH2)4 NH-c-AMP, 8-n-pentylamino-c-AMP], in data set [2], the Ki was found to be 72 µM and the “Inhibition I: Relative Inhibition” value amounted to 62.3%.
As to `CCCCCCCCNc1nc2c(N)ncnc2n1[C@@H]1O[C@@H]2COP(=O)(O)O[C@H]2[C@H]1O` [8-CH3 (CH2)7 NH-c-AMP, 8-n-octylamino-c-AMP], the “Inhibition I: Relative Inhibition” value in data set [3] turned out to be 80.0%.
`CCCCSc1nc2c(N)ncnc2n1[C@@H]1O[C@@H]2COP(=O)(O)O[C@H]2[C@H]1O` [8-CH3 (CH2)3 S-c-AMP, 8-n-butylmercapto-c-AMP]: in the data set on CHO-Ki cells [1], the minimal effective concentration was roughly 400 µM. For the same molecule, in data set [2], the Ki stood at 74 µM and the “Inhibition I: Relative Inhibition” value was 64.3%.
On to `CCCCCCCSc1nc2c(N)ncnc2n1[C@@H]1O[C@@H]2COP(=O)(O)O[C@H]2[C@H]1O` [8-CH3 (CH2)6 S-c-AMP, 8-n-heptylmercapto-c-AMP], for which the minimal effective concentration in the data set with CHO-Ki cells [1] stood at 300 µM. The “Inhibition I: Relative Inhibition” value in data set [3] worked out at 90.4%.
For the molecule `CCCC(=O)Nc1ncnc2c1ncn2[C@@H]1O[C@@H]2COP(=O)(O)O[C@H]2[C@H]1OC(=O)CCC` [N^6,O^2' -dibutyryl-c-AMP], in the data set on protein kinases, the “protein kinase activation (literature)” value is “activate protein kinases”. In addition, the “reverse transformation of CHO-Ki (literature)” value in the data set with CHO-Ki cells [4] was “reversely transformed from the epitherial form to the fibroblast form”. In addition, in data set [5], the “PDE inhibition (literature)” value is reported as “inhibits PDE to elevate the intracellular c-AMP level”.
On to `CCCCCCCCCCCCNc1nc2c(N)ncnc2n1[C@@H]1O[C@@H]2COP(=O)(O)O[C@H]2[C@H]1O` [8-CH3 (CH2)11 NH-c-AMP, 8-n-dodecylamino-c-AMP], for which, in the data set on CHO-Ki cells [1], the “Toxic (remark at 10^-3 mole/liter)” value is on record as “Toxic” and the minimal effective concentration was roughly 70 µM. For the same molecule, the “Inhibition I: Relative Inhibition” value in data set [3] is on record as 18.3%. Also, the inhibition constant (Ki) in data set [2] was 660 µM.
For the molecule `CCCCNc1nc2c(N)ncnc2n1[C@@H]1O[C@@H]2COP(=O)(O)O[C@H]2[C@H]1O` [8-CH3 (CH2)3 NH-c-AMP, 8-n-butylamino-c-AMP], the minimal effective concentration in the data set with CHO-Ki cells [1] is roughly 300 µM. Further, in data set [2], the inhibition constant (Ki) came out at 120 µM and the “Inhibition I: Relative Inhibition” value was determined as 55.6%.
As to `CCCCCCCCCSc1nc2c(N)ncnc2n1[C@@H]1O[C@@H]2COP(=O)(O)O[C@H]2[C@H]1O` [8-CH3 (CH2)8 S-c-AMP, 8-n-nonylmercapto-c-AMP], in the data set with CHO-Ki cells [1], the “Toxic (remark at 10^-3 mole/liter)” value was “Toxic” and the minimal effective concentration is 10 µM. In addition, the “Inhibition I: Relative Inhibition” value in data set [3] was 74.9%. Further, the inhibition constant (Ki) in data set [2] was found to be 31 µM.
Consider `CCCCCCCCCCNc1nc2c(N)ncnc2n1[C@@H]1O[C@@H]2COP(=O)(O)O[C@H]2[C@H]1O` [8-CH3 (CH2)9 NH-c-AMP, 8-n-decylamino-c-AMP], for which, in the data set on CHO-Ki cells [1], the “Toxic (remark at 10^-3 mole/liter)” value is “Toxic” and the minimal effective concentration is roughly 80 µM. Further, the “Inhibition I: Relative Inhibition” value in data set [3] amounted to 67.6%. The inhibition constant Ki in data set [2] amounted to 82 µM.
In the same order, the values of `CCCCCCCCCCCNc1nc2c(N)ncnc2n1[C@@H]1O[C@@H]2COP(=O)(O)O[C@H]2[C@H]1O` [8-CH3 (CH2)10 NH-c-AMP, 8-n-undecylamino-c-AMP] are “Toxic”, roughly 50 µM, 51.4% and 170 µM.
For the molecule `CCCCCCCCSc1nc2c(N)ncnc2n1[C@@H]1O[C@@H]2COP(=O)(O)O[C@H]2[C@H]1O` [8-CH3 (CH2)7 S-c-AMP, 8-n-octylmercapto-c-AMP], in the data set with CHO-Ki cells [1], the “Toxic (remark at 10^-3 mole/liter)” value was “Toxic” and the minimal effective concentration stood at 20 µM. Also, in data set [2], the Ki was 16 µM and the “Inhibition I: Relative Inhibition” value came to 95.0%.
As for `CCCCCCCCCCCCSc1nc2c(N)ncnc2n1[C@@H]1O[C@@H]2COP(=O)(O)O[C@H]2[C@H]1O` [8-CH3 (CH2)11 S-c-AMP, 8-n-dodecylmercapto-c-AMP], in the data set on CHO-Ki cells [1], the “Toxic (remark at 10^-3 mole/liter)” value was “Toxic” and the minimal effective concentration was less than 5 µM. In addition, in data set [2], the Ki amounted to 140 µM and the “Inhibition I: Relative Inhibition” value is 26.4%.
For the molecule `CCCSc1nc2c(N)ncnc2n1[C@@H]1O[C@@H]2COP(=O)(O)O[C@H]2[C@H]1O` [8-CH3 (CH2)2 S-c-AMP, 8-n-propylmercapto-c-AMP], the minimal effective concentration in the data set with CHO-Ki cells [1] was roughly 400 µM. In data set [2], the inhibition constant Ki turned out to be 78 µM and the “Inhibition I: Relative Inhibition” value is 60.1%.
As to `CNc1nc2c(N)ncnc2n1[C@@H]1O[C@@H]2COP(=O)(O)O[C@H]2[C@H]1O` [8-CH3 NH-c-AMP, 8-methylamino-c-AMP, reference compound], in the data set with CHO-Ki cells [1], the minimal effective concentration was roughly 500 µM. In data set [2], the inhibition constant Ki was determined as 210 µM and the “Inhibition I: Relative Inhibition” value was 47.6%.
Regarding `CCCCCCSc1nc2c(N)ncnc2n1[C@@H]1O[C@@H]2COP(=O)(O)O[C@H]2[C@H]1O` [8-CH3 (CH2)5 S-c-AMP, 8-n-hexylmercapto-c-AMP], the minimal effective concentration in the data set on CHO-Ki cells [1] was 300 µM. Further, in data set [2], the inhibition constant (Ki) came to 19 µM and the “Inhibition I: Relative Inhibition” value worked out at 92.4%.
With `CCCCCCNc1nc2c(N)ncnc2n1[C@@H]1O[C@@H]2COP(=O)(O)O[C@H]2[C@H]1O` [8-CH3 (CH2)5 NH-c-AMP, 8-n-hexylamino-c-AMP], in data set [2], the Ki is 58 µM and the “Inhibition I: Relative Inhibition” value is on record as 76.1%.
As to `CCCCCCCCCCCSc1nc2c(N)ncnc2n1[C@@H]1O[C@@H]2COP(=O)(O)O[C@H]2[C@H]1O` [8-CH3 (CH2)10 S-c-AMP, 8-n-undecylmercapto-c-AMP], in the data set with CHO-Ki cells [1], the “Toxic (remark at 10^-3 mole/liter)” value is “Toxic” and the minimal effective concentration was less than 5 µM. For the same molecule, in data set [2], the Ki was 88 µM and the “Inhibition I: Relative Inhibition” value amounted to 39.1%.
Take `CCCNc1nc2c(N)ncnc2n1[C@@H]1O[C@@H]2COP(=O)(O)O[C@H]2[C@H]1O` [8-CH3 (CH2)2 NH-c-AMP, 8-n-propylamino-c-AMP]: in data set [2], the inhibition constant (Ki) came out at 230 µM and the “Inhibition I: Relative Inhibition” value is given as 51.1%.
Consider `CCCCCCCCCCSc1nc2c(N)ncnc2n1[C@@H]1O[C@@H]2COP(=O)(O)O[C@H]2[C@H]1O` [8-CH3 (CH2)9 S-c-AMP, 8-n-decylmercapto-c-AMP], for which, in the data set with CHO-Ki cells [1], the “Toxic (remark at 10^-3 mole/liter)” value was “Toxic” and the minimal effective concentration is less than 5 µM. Further, the “Inhibition I: Relative Inhibition” value in data set [3] came to 68.2%. The Ki in data set [2] was 46 µM.
Regarding `CCCCCCCCCNc1nc2c(N)ncnc2n1[C@@H]1O[C@@H]2COP(=O)(O)O[C@H]2[C@H]1O` [8-CH3 (CH2)8 NH-c-AMP, 8-n-nonylamino-c-AMP], the “Inhibition I: Relative Inhibition” value in data set [3] amounted to 71.3%. The inhibition constant Ki in data set [2] amounted to 27 µM.
As to `CCCCCSc1nc2c(N)ncnc2n1[C@@H]1O[C@@H]2COP(=O)(O)O[C@H]2[C@H]1O` [8-CH3 (CH2)4 S-c-AMP, 8-n-amylmercapto-c-AMP], the minimal effective concentration in the data set with CHO-Ki cells [1] was found to be 400 µM. Further, in data set [2], the inhibitory constant (Ki) was 40 µM and the “Inhibition I: Relative Inhibition” value came out at 76.7%.
`CCCCCCCNc1nc2c(N)ncnc2n1[C@@H]1O[C@@H]2COP(=O)(O)O[C@H]2[C@H]1O` [8-CH3 (CH2)6 NH-c-AMP, 8-n-heptylamino-c-AMP]: in data set [2], the inhibitory constant (Ki) stood at 26 µM and the “Inhibition I: Relative Inhibition” value is 78.2%.
For the molecule `CCCCCCCCCCCCCNc1nc2c(N)ncnc2n1[C@@H]1O[C@@H]2COP(=O)(O)O[C@H]2[C@H]1O` [8-CH3 (CH2)12 NH-c-AMP, 8-n-tridecylamino-c-AMP], in the data set on CHO-Ki cells [1], the “Toxic (remark at 10^-3 mole/liter)” value was “Toxic” and the minimal effective concentration was roughly 90 µM. Besides, the “Inhibition I: Relative Inhibition” value in data set [3] came to 11.3%. Besides, in data set [2], the Ki amounted to 840 µM.
